Read-outs that look alike come from different tables or passages of the source.
How the values were obtained:
misfolded Aβ dimers = experiment: Single-molecule AFM force spectroscopy: rupture force of Aβ dimers; format: binding, human
Method: The cysteinyl−peptides were covalently immobilized on the tip and the surface via flexible tethers terminated with maleimide groups. […] Peptide aggregation was minimized by using a very low peptide concentration (20 nM) during the coupling reaction with the functionalized mica surface and the tips. Probing was performed by multiple approach−retraction cycles over various spots of the mica surface.
Figures 1−b1 and 1−b2 show typical force curves for non−specific and specific interactions, respectively. Specific rupture events were characterized by the appearance of the event indicated with an arrow in Fig. 1−b2. The rupture peak appears at the distance defined by the extension of the flexible linkers (polyethylene glycol, PEG and maleimide silatrane, MAS) and the segments of the peptides not involved in dimer formation (see Supplementary Methods for specifics). The force−distance curves, as shown in Fig. 1−b2, were analyzed with worm−like chain (WLC) fitting to extract parameters including the rupture force and the contour length. […] The measurements for the [VPV]Aβ40 mutant performed at similar conditions (ionic strength, loading rate, etc.) are shown in Fig. 1d. […] The rupture forces increase with increasing apparent loading rates (Supplementary Fig. S1).
All cysteinyl−Aβ peptides were synthesized using 9−fluorenylmethoxycarbonyl (FMOC) chemistry and purified by reverse phase high performance liquid chromatography (RP−HPLC). The identity and purity (usually > 97%) of the peptides were confirmed by amino acid analysis followed by mass spectrometry and RP−HPLC. Functionalization of AFM tips and mica substrates were prepared according to previously published procedures. Briefly, 20 nM Aβ monomers were immobilized on mica functionalized with aminopropyl silatrane (APS) via PEG 3400 tethers and on AFM tips through maleimide silatrane (MAS). For DFS study, the tip retraction speeds ranged from 100 nm/s to 4000 nm/s. The dwell time was set at 0.3 s when retraction speed reached 1000 nm/s and above. Force curves with rupture event were subject to WLC analysis, as shown below. [drawing 1] Rupture force distributions were fitted with a probability density function: [drawing 2] Dynamic force spectra were fitted with Bell−Evans model[21]: [drawing 3] The energy profiles were reconstructed according to previous papers, using the equation below. [drawing 4] Positions of interacting segments of Aβ monomers within dimers were estimated by subtracting from the measured contour lengths the lengths of all linkers and the distance between N−termini of monomers (see Fig. 1a). The contour length of PEG was estimated with the following equation[28]: [drawing 5] Where Lc(F) is the contour length, Ns is the average number of monomers, Lplanar is the length of monomers with planar conformation, Lhelical is the length of monomers with helical conformation, ΔG(F) is the free energy difference at zero appling force. The Ns is 77 ± 10 for 3400 Da PEG. The Lplanar and Lhelical are 3.58 Å and 2.8 Å, respectively. The ΔG(F) is fixed at 3 kBT. The contour length of PEG was thus estimated to be 22.0 ± 0.9 nm. All error bars represent SEM. Detailed methods can be found in Supplementary Information.
A 50 mM 1−(3−aminopropyl) silatrane (APS) stock solution was prepared by dissolving the APS powder in deionized (DI) water. The 1.67 mM stock solution of maleimide−polyethylene glycol−succinimidyl valerate (MAL−PEG−SVA; 3.4 kDa Laysan Bio Inc, Arab, AL) was prepared in DMSO (Sigma−Aldrich Inc.) and stored at −20°C. The 10 mM Tris (2−carboxyethyl) phosphine (TCEP) hydrochloride (Hampton Research Inc.) and the 2.94 mM solution of maleimide silatrane (MAS) were prepared in DI water and stored at −20°C. A 10 mM stock solution of β−mercaptoethanol was prepared in 10 mM sodium phosphate, pH 7.4 (“phosphate buffer”) and kept at 4°C. Unless otherwise specified, other reagents used in the experiments were of analytical grade from Sigma−Aldrich. […]

Aβ peptides = settings: cited from earlier work
From the text: Aberrant folding (misfolding) and aggregation of amyloid proteins are pathological hallmarks of a large class of neurodegenerative diseases, including Alzheimer's disease (AD) (reviewed in[1][2]). In AD, amyloid precursor proteins are sequentially cleaved by β−secretase and γ−secretase, producing the amyloid β−protein (Aβ)[3]. Aβ peptides contain several alloforms with varying sequences of amino acids, dependent on the cleavage sites of γ−secretase. […] Additional C−terminal modi ... || It is important to compare our data with the aggregation studies of similar Aβ peptide samples.

[1] = cited from earlier work
From the text: Aberrant folding (misfolding) and aggregation of amyloid proteins are pathological hallmarks of a large class of neurodegenerative diseases, including Alzheimer's disease (AD) (reviewed in[1][2]). In AD, amyloid precursor proteins are sequentially cleaved by β−secretase and γ−secretase, producing the amyloid β−protein (Aβ)[3]. Aβ peptides contain several alloforms with varying sequences of amino acids, dependent on the cleavage sites of γ−secretase.

Aβ42 dimers = settings: cited from earlier work
From the text: We have developed a single−molecule atomic force microscopy (SMFS) approach enabling us to probe and characterize the interactions of the peptides and proteins in transient misfolded conformations. In this approach, the protein is end−immobilized on the AFM tip and substrate, allowing us to measure the interprotein interactions at the single−molecule level. The dynamics force spectroscopy (DFS) approach has been quite informative with respect to the lifetimes of transiently formed misfolded dimers (reviewed in[16]).

[2] = Supplementary Figs. S3b-S5b, similar analysis, loading rate not given
[3] = loading rates of 5000−7000 pN/s, ± SEM, total data 170 (Aβ40), 280 ([VPV]Aβ40)

## [VPV]Aβ42: Aβ42 with VPV substitutions (Gly33Val−Val36Pro−Gly38Val); cysteinyl−peptide
Misfolded Aβ dimers; [2]
  most probable rupture force: 67.9 ± 1.0 pN

## Aβ40: alloform of human amyloid β−protein; cysteinyl−Aβ peptide, Cys residue placed at the N−terminus
Aβ peptides
  aggregation properties: similar
  oligomerization pattern: rapid equilibrium with coexisting monomers, dimers, trimers, and tetramers
Misfolded Aβ dimers; loading rate 6215 pN/s, probability density function fit
  most probable rupture force: 57.0 pN
Misfolded Aβ dimers; [3]
  most probable rupture force: 63.4 ± 3.2 pN
Misfolded Aβ dimers; loading rates of 5000−7000 pN/s, ± SEM, total data 170 (Aβ40), 280 ([VPV]Aβ40), listed as Αβ40
  most probable rupture force: 63.4 pN
Misfolded Aβ dimers; scatter plot Fig. 3c, horizontal line, loading rates of 5000−7000 pN/s
  rupture force alignment in the force versus contour length plot: ~ 60 pN

## [VPV]Aβ40: Aβ40 mutant with VPV substitutions (Gly33Val−Val36Pro−Gly38Val); cysteinyl−peptide
Misfolded Aβ dimers; [VPV]Αβ40 vs Αβ40 (79.3 vs 63.4 pN), loading rates of 5000−7000 pN/s
  most probable rupture force, increase vs Αβ40 dimers: 25%
Misfolded Aβ dimers; loading rate 6068 pN/s, probability density function fit
  most probable rupture force: 83.6 pN
Misfolded Aβ dimers; [3]
  most probable rupture force: 79.3 ± 1.5 pN
Misfolded Aβ dimers; loading rates of 5000−7000 pN/s, ± SEM, total data 170 (Aβ40), 280 ([VPV]Aβ40), listed as [VPV]Αβ40
  most probable rupture force: 79.3 pN
[1]
  toxicity of oligomers / aggregates: elevated neurotoxicity

## Aβ42: alloform of human amyloid β−protein with two additional C−terminal residues; cysteinyl−peptide
Aβ peptides
  oligomerization pattern: prefers to form a pentamer/hexamer structure (paranucleus)
Aβ42 dimers; in the absence of Cu^2+ cations
  segments involved in dimer formation: formed dimers via the C−terminal segments
Aβ42 dimers; with Cu^2+ cations
  segments involved in dimer formation: dimer formation involves the N−terminal segments
Misfolded Aβ dimers; [2]
  most probable rupture force: 66.2 ± 0.8 pN
[1]
  toxicity compared with other alloforms: appears to be the most toxic

From paper PMC3791449, “Mechanism of amyloid β−protein dimerization determined using single−molecule AFM force spectroscopy” (Scientific Reports, 2013)
